According to US20110293593A1, “SIVA 2 STABILIZATION” (YEDA RESEARCH AND DEVELOPMENT CO., LTD., priority 2008, published 2011):
Peptide text beside a SMILES is read from it. * marks the point of attachment. Cbz = O=C(OCc1ccccc1)*

What was measured:
[1] = tested on: SIVA2; assay: SIVA2 level/stabilization in transfected HEK-293T and EcR-293 cells, western blotting; assay type: cell-based, human
Protocol: (A) Expression of SIVA1 and SIVA2 in various cell lines. For each cell line, cellular protein (30 μg) was resolved by 13.5% SDS-PAGE and probed with anti-SIVA antibody. The two lanes at the right show SIVA1 and SIVA2 overexpressed in HEK-293T cells (for each protein, 2 μg cDNA/well in 6-well plates). (B) Several SIVA isoforms are expressed in PBMCs. […] (C) Ligand activation increases the amount of SIVA2 in resting PBMCs. Cells (2×10^6) were treated with the indicated ligands for 8 h and the cell lysates were analyzed by western blotting. […] The cells were stimulated with PHA (1 μg/ml) for 48 h, washed twice with phosphate-buffered saline, and incubated for an additional period of 18 h without PHA. Ligands and genotoxic agents (camptothecin (CPT) 10 μM and cisplatin (CIS) 50 μM) were then applied for 18 h. MG132 was applied for the last 4 h of treatment. Except where otherwise indicated, MG132 was applied in this study at a concentration of […] denotes a non-specific band serving as loading control. […] PBMCs were activated as in FIG. 1d. Ligands were applied to the indicated cell types for 18 h. Semi-quantitative RT-PCR for SIVA message was performed as described in Methods. GAPDH was used as a basis for normalization. […] SIVA2 or SIVA1 plasmids (0.5 μg) were transfected, and 18 h later ligands were applied for 8 h. Total-cell lysates were analyzed by western blotting using anti-SIVA antibody. TNF-induced SIVA2 stabilization was assessed in EcR-293-CD27 cells. (G) Inducibly expressed SIVA2 is stabilized by CD70. EcR-293-CD27-SIVA2 cells (see Methods) were treated with ponasterone and CD70 as indicated. Total-cell lysates were analyzed by western blotting using LDH as the loading control (bottom panel). […] HEK-293T cells were transfected with FLAG-SIVA2 and analyzed 24 h after transfection. MG132 was applied for the last 4 h of treatment. TCL, total cell lysate. (I) Differential effects of genotoxic agents on the expression of SIVA1 and SIVA2. Top: HepG2 cells were treated with CPT for 18 h. When indicated, they were transfected with pSUPER SIVA 30 h prior to CPT application. Cells lysates were analyzed by western blotting using anti-SIVA antibody. Middle: HepG2 cells were exposed to UVC (20 J/m^2) and levels of SIVA proteins were determined after 18 h of treatment. […] Bottom: HEK-293T cells were transfected with 0.5 μg of FLAG-SIVA2. CPT and CD40L were applied, 8 h after transfection, for a further 18 h.
HEK-293T cells cotransfected with NIK and SIVA2 were metabolically labeled with azido-GlcNAc, in-vitro biotinylated, and immunoprecipitated. The biotin-labeled GlcNAc moieties in SIVA2 were detected with streptavidin horseradish peroxidase (HRP). (B) SIVA binds to wheatgerm-agglutinin. The plasmids for SIVA2, alone or together with NIK or TRAF2, were transiently expressed in HEK-293T cells. Lactacystin was applied for the last 6 h of the 24-h treatment period. Lysates were analyzed for expression (right panel) and WGA binding (left panel) of SIVA2. N-acetyl-D-glucosamine (0.5 M) was added as a competitor for WGA binding. […] FLAG-SIVA2 was cotransfected with myc-NIK into HEK-293T cells and immunoprecipitated with anti-FLAG-M2 beads. The immunoprecipitated beads were boiled with 1% SDS and the eluted proteins were treated with […] hexosaminidase as described (Whelan, 2006). The samples were collected after treatment for 4, 8, and 20 h, diluted with WGA binding buffer, and lectin binding was assayed as described in Methods. Immunoprecipitation of the protein with anti-FLAG-M2 beads after treatment for 8 h as described above, followed by western analysis, confirmed that despite having lost the ability to bind to WGA the protein remained intact. ‘Sup’, SIVA protein remaining unbound after the reaction. […] The plasmids were transiently expressed in HEK-293T cells. DON (50 μM) was applied for the last 16 h and MG132 for the last 6 h of the 28-h treatment period. […] The experiment was performed as in (D). […]

[2] = tested on: SIVA2; assay: SIVA2 protein level in PBMCs, western blotting with anti-SIVA antibody; assay type: cell-based, human; settings: for SIVA2 levels in activated PBMCs: PHA-activated PBMCs, CPT 10 μM, CIS 50 μM for 18 h, MG132 last 4 h; for SIVA2 expression: resting PBMCs, ligands for 8 h
Protocol: For each cell line, cellular protein (30 μg) was resolved by 13.5% SDS-PAGE and probed with anti-SIVA antibody. The two lanes at the right show SIVA1 and SIVA2 overexpressed in HEK-293T cells (for each protein, 2 μg cDNA/well in 6-well plates). […] Cells (2×10^6) were treated with the indicated ligands for 8 h and the cell lysates were analyzed by western blotting. […] The cells were stimulated with PHA (1 μg/ml) for 48 h, washed twice with phosphate-buffered saline, and incubated for an additional period of 18 h without PHA. Ligands and genotoxic agents (camptothecin (CPT) 10 μM and cisplatin (CIS) 50 μM) were then applied for 18 h. MG132 was applied for the last 4 h of treatment. Except where otherwise indicated, MG132 was applied in this study at a concentration of […] denotes a non-specific band serving as loading control. […] PBMCs were activated as in FIG. 1d. Ligands were applied to the indicated cell types for 18 h. Semi-quantitative RT-PCR for SIVA message was performed as described in Methods. GAPDH was used as a basis for normalization. […] SIVA2 or SIVA1 plasmids (0.5 μg) were transfected, and 18 h later ligands were applied for 8 h. Total-cell lysates were analyzed by western blotting using anti-SIVA antibody. […] EcR-293-CD27-SIVA2 cells (see Methods) were treated with ponasterone and CD70 as indicated. Total-cell lysates were analyzed by western blotting using LDH as the loading control (bottom panel). […] HEK-293T cells were transfected with FLAG-SIVA2 and analyzed 24 h after transfection. MG132 was applied for the last 4 h of treatment. TCL, total cell lysate. […] Top: HepG2 cells were treated with CPT for 18 h. When indicated, they were transfected with pSUPER SIVA 30 h prior to CPT application. Cells lysates were analyzed by western blotting using anti-SIVA antibody. Middle: HepG2 cells were exposed to UVC (20 J/m^2) and levels of SIVA proteins were determined after 18 h of treatment. […] Bottom: HEK-293T cells were transfected with 0.5 μg of FLAG-SIVA2. CPT and CD40L were applied, 8 h after transfection, for a further 18 h.
Cells. Peripheral-blood mononuclear cells (PBMCs) were isolated from buffy-coat samples and cultured as described (Ramakrishnan et al., 2004). Ecdysone-inducible EcR-293-CD27 cell lines expressing SIVA2 (EcR-293-CD27-SIVA2) or SIVA1 (EcR-293-CD27-SIVA1) and EcR-293-CD40 were generated by transfection using the calcium phosphate method according to the instructions of the manufacturer (Invitrogen). All adherent cells—HEK-293T, EcR-293 (Invitrogen), HeLa, HeLa T-REx (Invitrogen), and HepG2—were cultured in Dulbecco's modified Eagle's medium. Both culture media were supplemented with 10% fetal calf serum, 100 U/ml pencillin, and 100 μg/ml streptomycin. The human lymphoblastoid lines Ramos (Human Burkitt's lymphoma cell line) and BJAB (B-lymphoblastoma cell line) were cultured in RPMI medium. Ecdysone-inducible EcR293-CD27 and EcR293-CD40 cell lines were generated by their stable transfection with cDNAs for human CD27 and CD40, respectively. EcR293-CD27 cell lines expressing SIVA2 (EcR293-CD27-SIVA2) or SIVA1 (EcR293-CD27-SIVA1) were generated by transfection using the calcium phosphate method, and myc NIK and myc NIK (K670A) were later introduced into these cells by retroviral transduction and selection with 1 μg/ml puromycin. Ramos cells constitutively expressing myc-NIK were generated by retroviral transduction, followed by selection with 1 μg/ml puromycin. […]

[3] = tested on: SIVA1; assay: SIVA1 protein level in PBMCs, western blotting with anti-SIVA antibody; assay type: cell-based, human; settings: resting PBMCs, ligands for 8 h
Protocol: For each cell line, cellular protein (30 μg) was resolved by 13.5% SDS-PAGE and probed with anti-SIVA antibody. The two lanes at the right show SIVA1 and SIVA2 overexpressed in HEK-293T cells (for each protein, 2 μg cDNA/well in 6-well plates). […] Cells (2×10^6) were treated with the indicated ligands for 8 h and the cell lysates were analyzed by western blotting. […] The cells were stimulated with PHA (1 μg/ml) for 48 h, washed twice with phosphate-buffered saline, and incubated for an additional period of 18 h without PHA. Ligands and genotoxic agents (camptothecin (CPT) 10 μM and cisplatin (CIS) 50 μM) were then applied for 18 h. MG132 was applied for the last 4 h of treatment. Except where otherwise indicated, MG132 was applied in this study at a concentration of […] denotes a non-specific band serving as loading control. […] Semi-quantitative RT-PCR for SIVA message was performed as described in Methods. […] Total-cell lysates were analyzed by western blotting using anti-SIVA antibody. […] Total-cell lysates were analyzed by western blotting using LDH as the loading control (bottom panel). […] HEK-293T cells were transfected with FLAG-SIVA2 and analyzed 24 h after transfection. […] Cells lysates were analyzed by western blotting using anti-SIVA antibody. Middle: HepG2 cells were exposed to UVC (20 J/m^2) and levels of SIVA proteins were determined after 18 h of treatment. […]

[4] = biological target: T1, cIAP1 (human, UniProt Q13490 1-618); assay: immunoprecipitation of endogenous cIAP1 from transfected HEK293T cells (FIG. 6D right panel)
T1 construct: Also used for general sentences that say only 'cIAP1'; also called endogenous cIAP1
T1 sequence (Q13490 whole entry): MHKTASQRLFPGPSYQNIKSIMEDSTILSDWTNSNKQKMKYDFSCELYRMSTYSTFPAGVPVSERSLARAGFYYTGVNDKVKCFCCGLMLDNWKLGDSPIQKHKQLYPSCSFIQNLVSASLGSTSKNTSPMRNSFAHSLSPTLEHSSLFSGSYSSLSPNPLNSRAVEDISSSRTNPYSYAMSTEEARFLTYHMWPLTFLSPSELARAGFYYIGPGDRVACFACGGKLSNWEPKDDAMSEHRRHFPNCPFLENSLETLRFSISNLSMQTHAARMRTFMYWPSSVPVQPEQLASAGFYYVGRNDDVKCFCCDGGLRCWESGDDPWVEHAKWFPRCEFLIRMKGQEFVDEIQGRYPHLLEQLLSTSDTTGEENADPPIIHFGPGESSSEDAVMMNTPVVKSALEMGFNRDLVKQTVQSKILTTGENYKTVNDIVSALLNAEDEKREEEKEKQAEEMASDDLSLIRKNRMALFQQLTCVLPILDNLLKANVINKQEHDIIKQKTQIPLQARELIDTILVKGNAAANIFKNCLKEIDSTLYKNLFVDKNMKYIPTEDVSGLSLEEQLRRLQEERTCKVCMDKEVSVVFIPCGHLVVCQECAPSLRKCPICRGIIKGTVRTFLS
Protocol: (§1) Left panel: Binding in vitro. […] Right and bottom panels depict binding in transfected HEK293T cells. […] After 28 h the endogenous cIAP1 was immunoprecipitated. MG132 was applied for the last 6 h of incubation. […] After 28 h the transfected proteins were immunoprecipitated and probed for co-precipitated endogenous cIAP1. MG132 was applied for the last 6 h of incubation. […] N/A, not analyzed. The asterisk denotes assessment in the yeast two-hybrid test. […] The indicated plasmids were co-transfected into HEK293T cells.

[5] = biological target: T1, cIAP1; assay: immunoprecipitation of the transfected protein, probed for co-precipitated endogenous cIAP1 (FIG. 6D bottom panel)
Protocol: as §1

[6] = HEK-293T, FLAG-SIVA2, MG132 last 4 h

CC(=O)N[C@H]1[C@@H](OCc2ccccc2)O[C@H](CO)[C@H](O)[C@@H]1O [BADGP, benzyl-α-GalNAc]
NIK-induced SIVA2 stabilization ([1]; HEK-293T, NIK + SIVA2, 0.7, 1.4, or 2.0 mM BADGP last 16 h of 28 h): blocks NIK-induced SIVA2 stabilization

N.N.[Cl][Pt][Cl] [CIS, cisplatin]
SIVA2 levels in activated PBMCs [2]: but not genotoxic stress, increase SIVA2 levels

CC[C@@]1(O)C(=O)OCc2c1cc1n(c2=O)Cc2cc3ccccc3nc2-1 [CPT, camptothecin]
SIVA2 levels in activated PBMCs [2]: but not genotoxic stress, increase SIVA2 levels | cytokine (CD40)-induced stabilization/enhancement of SIVA2 under genotoxic agent ([1]; HEK-293T, FLAG-SIVA2, CPT and CD40L for 18 h): decreased

[N-]=[N+]=CC(=O)CC[C@H](N)C(=O)O [DON, 6-diazo-5-oxo-L-norleucine]
MG132-induced SIVA2 stabilization ([1]; HEK-293T, DON 50 μM last 16 h, MG132 last 6 h): does not affect MG132-induced stabilization | TRAF2-induced SIVA2 stabilization ([1]; HEK-293T, DON 50 μM last 16 h of 28 h): interferes with TRAF2-induced SIVA2 stabilization | NIK-mediated stabilization of wild-type SIVA2 ([1]; HEK-293T, DON as in FIG. 3D): blocks the NIK-mediated stabilization of wild-type SIVA2 | residual stabilization by NIK of the SIVA2 6SA mutant ([1]; HEK-293T, DON as in FIG. 3D): has no effect on the residual stabilization by NIK of the SIVA2 6SA mutant

CC(C)C[C@@H](C=O)NC(=O)[C@H](CC(C)C)NC(=O)[C@H](CC(C)C)NC(=O)OCc1ccccc1 [MG132] (Cbz-Leu-Leu-Leu-aldehyde)
SIVA2 levels in activated PBMCs [2]: increase SIVA2 levels | accumulation of polyubiquitinated SIVA2 [1, 6]: enhances accumulation of the polyubiquitinated protein | stabilization of transiently expressed SIVA2 [1, 6]: stabilizes transiently expressed SIVA2 | stabilization of SIVA2 (1-58) (SIVA N-terminus) ([1]; HEK-293T, MG132 25 uM last 6 h of 24 h): stabilizes SIVA N-terminus | stabilization of SIVA2 serine mutants ([1]; HEK-293T, MG132 added 18 h after transfection for 6 h): stabilize the SIVA2 serine mutants that cannot be stabilized by NIK

B1: CD70: CD27 ligand; mCD70 produced by large-scale transfection of HEK-293T cells (protein, UniProt O55237 1-195, looked up)
CD70 antigen: MPEEGRPCPWVRWSGTAFQRQWPWLLLVVFITVFCCWFHCSGLLSKQQQRLLEHPEPHTAELQLNLTVPRKDPTLRWGAGPALGRSFTHGPELEEGHLRIHQDGLYRLHIQVTLANCSSPGSTLQHRATLAVGICSPAAHGISLLRGRFGQDCTVALQRLTYLVHGDVLCTNLTLPLLPSRNADETFFGVQWICP
SIVA2 expression [2]: extensive enhancement | SIVA1 expression [3]: did not affect | stabilization of inducibly expressed SIVA2 ([1]; EcR-293-CD27-SIVA2 cells, ponasterone): stabilized

B2: HIS-SIVA2 (1-58) (other, not shown: small tags and cut ends)
chain: MPKRSCPFADVAPLQLKVRVSQRELSRGVCAERYSQEVFDPSGVASIACSSCVRAVDG
notes: also called SIVA N-terminus
binding result [4]: binds

B3: FLAG-SIVA2 (1-58) (other, not shown: small tags and cut ends)
chain: B2 chain
notes: also called SIVA N-terminus
binding result [5]: binds

B4: CD154: CD40 ligand; hCD40L produced by large-scale transfection of HEK-293T cells (protein, UniProt P29965 113-261, looked up)
CD40 ligand, soluble form: MQKGDQNPQIAAHVISEASSKTTSVLQWAEKGYYTMSNNLVTLENGKQLTVKRQGLYYIYAQVTFCSNREASSQAPFIASLCLKSPGRFERILLRAANTHSSAKPCGQQSIHLGGVFELQPGASVFVNVTDPSQVSHGTGFTSFGLLKL
SIVA2 expression [2]: extensive enhancement | SIVA1 expression [3]: did not affect

B5: HIS-SIVA2 (other, not shown: small tags and cut ends)
chain: MPKRSCPFADVAPLQLKVRVSQRELSRGVCAERYSQEVFDPSGVASIACSSCVRAVDGKAVCGQCERALCGQCVRTCWGCGSVACTLCGLVDCSDMYEKVLCTSCAMFET
notes: Expressed by transfection in HEK293T cells
binding result [4]: binds
